Source: paper PMC10377586 (Biomolecules, 2023)

Assays:
[1] = target: T1, rat D1 receptor (Rattus norvegicus, UniProt P18901); assay: Radioligand binding [3H]SCH23390, rat brain tissue; conditions: for Ki: native rat D1 receptor, read-out: rD1 [3H]SCH23390 Ki ± SEM; for inhibition at 1 µM: read-out: rD1 [3H]SCH23390 % inhibition ± SEM at 1 µM
T1 construct: source of native rat D1 receptor protein; from tissue; host or cells: rat striatum (methods) / rat brain cortical membranes
Protocol: (§1) Rat brain cortical membranes were used as source of native rat D1 receptor protein, and human D2 receptor was recombinantly expressed in HEK293 cells.
Rat striatum tissue was thawed in 50 volumes of ice-cold 50 mM potassium phosphate buffer, pH 7.4, homogenized and centrifuged at 20,000× g for 20 min. The resulting pellet was resuspended in the same quantity of the buffer and centrifuged again for 20 min. Binding experiments were conducted in 96-well microplates in a total volume of 250 μL of appropriate buffers. Reaction mix included 50 μL solution of test compound, 50 μL of radioligand, and 150 μL of tissue suspension (3 mg/mL). [^3H]SCH23390 (spec. act. 81.9 Ci/mmol, PerkinElmer, NET 930) was used for labeling the D1-receptor. For measuring unspecific binding, cis(Z)flupentixol—5 μM was applied. Samples were incubated at 30 °C for 60 min. The incubation was terminated by rapid filtration over glass fiber filters GF/B using a Harvester (PerkinElmer, USA). The radioactivity was measured in MicroBeta TriLux 1450—liquid scintillation counter (PerkinElmer). Each compound was tested in a screening assay in duplicate at final concentrations of 1 µM. Results were expressed as a percent of inhibition of specific binding.

[2] = target: human D2L receptor (Homo sapiens, UniProt P14416); assay: Radioligand binding [3H]-raclopride, HEK293 membranes; conditions: HEK293 cells, human D2; read-out: hD2 [3H]-Raclopride Ki ± SEM
Sequence of human D2L receptor (P14416 whole entry): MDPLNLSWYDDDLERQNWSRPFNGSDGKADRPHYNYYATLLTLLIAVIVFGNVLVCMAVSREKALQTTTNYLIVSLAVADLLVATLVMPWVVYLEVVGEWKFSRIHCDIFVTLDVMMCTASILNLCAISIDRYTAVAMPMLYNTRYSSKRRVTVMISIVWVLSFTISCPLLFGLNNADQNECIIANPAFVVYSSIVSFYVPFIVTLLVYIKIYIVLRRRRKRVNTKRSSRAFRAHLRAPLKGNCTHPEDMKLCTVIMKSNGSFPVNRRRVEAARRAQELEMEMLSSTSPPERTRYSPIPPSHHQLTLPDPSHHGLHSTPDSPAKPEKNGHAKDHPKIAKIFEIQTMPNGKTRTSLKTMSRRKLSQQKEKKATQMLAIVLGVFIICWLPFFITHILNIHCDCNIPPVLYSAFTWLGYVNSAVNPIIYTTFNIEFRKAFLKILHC
Protocol: as §1
HEK293 cells with stable expression of human D2L receptor were maintained at 37 °C in a humidified atmosphere with 5% CO2 and grown in Dulbecco’s Modifier Eagle Medium containing 10% dialyzed fetal bovine serum and 500 µg/mL G418 sulfate. For membrane preparation, cells were subcultured in 150 cm^2 flasks, grown to 90% confluence, washed twice with prewarmed to 37 °C phosphate buffered saline (PBS), and pelleted by centrifugation (200× g) in PBS containing 0.1 mM EDTA and 1 mM dithiothreitol. Prior to membrane preparation, pellets were stored at −80 °C.
Cell pellets were thawed and homogenized in 10 volumes of assay buffer using an Ultra Turrax tissue homogenizer and centrifuged twice at 35,000× g for 15 min at 4 °C. The incubation buffer consisted of 50 mM Tris-HCl, 1 mM EDTA, 4 mM MgCl2, 120 mM NaCl, 5 mM KCl, 1.5 mM CaCl2, and 0.1% ascorbate. Assay was incubated in a total volume of 200 µL in 96-well microtiter plate for 1 h at 37 °C. The process of equilibration was terminated by rapid filtration through Unifilter plate with a 96-well cell harvester and radioactivity retained on the filter was quantified on a Microbeta plate reader (PerkinElmer). For competition studies, the assay samples contained radioligand 2.5 nM [^3H]-raclopride (PerkinElmer). Non-specific binding was defined with 10 µM of haloperidol. Each compound was tested in triplicate at 7 concentrations (10^−10–10^−4 M). The inhibition constants (Ki) were calculated from the Cheng–Prusoff equation [66]. Results were expressed as means of at least two separate experiments.

[3] = target: T2, human A3 (hA3) ARs (Homo sapiens, UniProt P0DMS8); assay: Radioligand binding [3H]PSB-11, CHO cell membranes; conditions: for Ki: CHO cell membranes, read-out: hA3 [3H]PSB-11 Ki ± SEM; for inhibition at 1 µM: read-out: hA3 [3H]PSB-11 % inhibition ± SEM at 1 µM
T2 construct: expressed in transfected cells; host or cells: CHO cells (membranes)
T2 sequence (P0DMS8 1-318): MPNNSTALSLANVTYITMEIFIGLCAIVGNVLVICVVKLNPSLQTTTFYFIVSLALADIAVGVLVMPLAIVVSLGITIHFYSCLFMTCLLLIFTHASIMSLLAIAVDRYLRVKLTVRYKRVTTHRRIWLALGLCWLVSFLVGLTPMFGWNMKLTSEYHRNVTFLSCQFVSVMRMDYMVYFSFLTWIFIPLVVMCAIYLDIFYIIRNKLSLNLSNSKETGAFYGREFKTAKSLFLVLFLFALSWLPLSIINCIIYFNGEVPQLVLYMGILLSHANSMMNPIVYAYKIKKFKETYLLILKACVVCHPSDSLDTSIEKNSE
Protocol: The final compounds were tested in radioligand binding assays to evaluate their affinity for all four ARs subtypes (see Table 2). Rat brain cortical membrane preparations were used as a source of rat A1 (rA1) ARs, and rat brain striatal membrane preparations served as a source of rat A2A (rA2A) ARs. For A2B- and A3AR assays, membrane preparations of Chinese hamster ovary (CHO) cells recombinantly expressing either human A2B (hA2B) or human A3 (hA3) ARs were employed.
Adenosine receptor radioligand binding assays were performed as previously described using rat brain cortical membrane preparations for A1 and rat brain striatal membrane preparations for A2A AR assays. Frozen rat brains (unstripped) were obtained from Pel Freez, Rogers, AR, USA. For assays at human AR subtypes, cell membranes of CHO cells recombinantly expressing the respective receptor were used. The following compounds were employed as radioligands: A1: [^3H]2-chloro-N^6-cyclopentyladenosine ([^3H]CCPA); A2A: [^3H]3-(3-hydroxypropyl)-7-methyl-8-(m-methoxystyryl)-1-propargylxanthine ([^3H]MSX-2); A2B: [^3H]8-(4-(4-(4-chlorophenyl)piperazine-1-sulfonyl)phenyl)-1-propylxanthine ([^3H]PSB-603); A3: [^3H]phenyl-8-ethyl-4-methyl-(8R)-4,5,7,8-tetrahydro-1H-imidazo[2,1-i]purine-5-one ([^3H]PSB-11). Initially, a single high concentration of compound was tested (1 µM). For potent compounds, full concentration–inhibition curves were determined using six to ten different concentrations of test compound spanning three orders of magnitude. At least three independent experiments were performed. Data were analyzed using GraphPad PRISM program version 4.0 or higher (Graph Pad, San Diego, CA, USA).

T1 sequence (P18901 whole entry): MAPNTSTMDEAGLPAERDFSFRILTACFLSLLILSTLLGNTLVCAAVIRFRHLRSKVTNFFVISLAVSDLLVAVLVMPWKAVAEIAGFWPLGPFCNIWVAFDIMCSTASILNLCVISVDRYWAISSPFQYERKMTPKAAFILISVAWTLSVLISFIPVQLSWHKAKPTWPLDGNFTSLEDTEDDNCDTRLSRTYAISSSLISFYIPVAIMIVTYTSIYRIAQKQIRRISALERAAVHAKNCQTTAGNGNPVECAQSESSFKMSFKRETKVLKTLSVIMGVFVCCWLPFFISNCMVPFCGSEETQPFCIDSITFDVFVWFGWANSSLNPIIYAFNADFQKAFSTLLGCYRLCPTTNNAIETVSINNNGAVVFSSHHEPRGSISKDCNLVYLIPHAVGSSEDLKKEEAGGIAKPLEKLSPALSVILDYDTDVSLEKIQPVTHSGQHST

| SMILES | Ki [1] [nM] | inhibition at 1 µM [1] [%] | Ki [2] [µM] | Ki [3] [nM] | inhibition at 1 µM [3] [%] | melting point [°C] |
| --- | --- | --- | --- | --- | --- | --- |
| CCC(C)n1c(NCCc2ccc(O)c(O)c2)nc2c1c(=O)n(C)c(=O)n2C (stereo not drawn) [Compound 11g, 7-(Sec-butyl)-8-((3,4-dihydroxyphenethyl)amino)-1,3-dimethyl-3,7-dihydro-1H-purine-2,6-dione] | > 1000 | 11 | 39.2 ± 8.43 | > 1000 | -4 | – |
| CCCCCCn1c(NCCc2ccc(O)c(O)c2)nc2c1c(=O)n(C)c(=O)n2C [Compound 11i, 8-((3,4-Dihydroxyphenethyl)amino)-7-hexyl-1,3-dimethyl-3,7-dihydro-1H-purine-2,6-dione] | > 1000 | 9 | 6.68 ± 0.95 | > 1000 | 3 | 216 to 218 |
| CC(C)n1c(NCCc2ccc(O)c(O)c2)nc2c1c(=O)n(C)c(=O)n2C [Compound 11d, 8-((3,4-Dihydroxyphenethyl)amino)-7-isopropyl-1,3-dimethyl-3,7-dihydro-1H-purine-2,6-dione] | > 1000 | 15 | 17.7 ± 3.99 | > 1000 | 12 | 180 to 182 |
| CCn1c(NCCc2ccc(O)c(O)c2)nc2c1c(=O)n(C)c(=O)n2C [Compound 11b, 8-((3,4-Dihydroxyphenethyl)amino)-7-ethyl-1,3-dimethyl-3,7-dihydro-1H-purine-2,6-dione] | > 1000 | 15 | 16.2 ± 1.23 | > 1000 | -5 | 225 to 226 |
| CCCCCn1c(NCCc2ccc(O)c(O)c2)nc2c1c(=O)n(C)c(=O)n2C [Compound 11h, 8-((3,4-Dihydroxyphenethyl)amino)-1,3-dimethyl-7-pentyl-3,7-dihydro-1H-purine-2,6-dione] | > 1000 | 12 | 8.26 ± 0.48 | > 1000 | 0 | – |
| CCCn1c(NCCc2ccc(O)c(O)c2)nc2c1c(=O)n(C)c(=O)n2C [Compound 11c, 8-((3,4-Dihydroxyphenethyl)amino)-1,3-dimethyl-7-propyl-3,7-dihydro-1H-purine-2,6-dione] | > 1000 | 9 | 9.37 ± 1.15 | > 1000 | 5 | – |
| CCCCn1c(NCCc2ccc(O)c(O)c2)nc2c1c(=O)n(C)c(=O)n2C [Compound 11e, 7-Butyl-8-((3,4-dihydroxyphenethyl)amino)-1,3-dimethyl-3,7-dihydro-1H-purine-2,6-dione] | > 1000 | 13 | 12.7 ± 1.86 | > 1000 | 0 | – |
| CC(C)Cn1c(NCCc2ccc(O)c(O)c2)nc2c1c(=O)n(C)c(=O)n2C [Compound 11f, 8-((3,4-Dihydroxyphenethyl)amino)-7-isobutyl-1,3-dimethyl-3,7-dihydro-1H-purine-2,6-dione] | > 1000 | 15 | 27.6 ± 4 | > 1000 | -6 | – |
| CCCCn1c(=O)c2c(nc(NCCc3ccc(O)c(O)c3)n2CCC)n(CCCC)c1=O [Compound 13, 1,3-Dibutyl-8-((3,4-dihydroxyphenethyl)amino)-7-propyl-3,7-dihydro-1H-purine-2,6-dione] | > 1000 | 2 | 4.39 ± 0.43 | > 1000 | 17 | – |

Now from value to molecule:

| Ki [1] [nM] | inhibition at 1 µM [1] [%] | Ki [2] [µM] | Ki [3] [nM] | inhibition at 1 µM [3] [%] | melting point [°C] | SMILES |
| --- | --- | --- | --- | --- | --- | --- |
| > 1000 | 12 | 12.7 ± 2.8 | > 1000 | 26 | – | CCCn1c(=O)c2c(nc3n2CCCN3CCc2ccc(O)c(O)c2)n(CCC)c1=O [Compound 21, 9-(3,4-Dihydroxyphenethyl)-1,3-dipropyl-6,7,8,9-tetrahydropyrimido[2,1-f]purine-2,4(1H,3H)-dione] |
| > 1000 | 11 | 16.6 ± 2.3 | 676 ± 143 | – | – | CCCCn1c(=O)c2c(nc3n2CCCN3CCc2ccc(O)c(O)c2)n(CCCC)c1=O [Compound 22, 1,3-Dibutyl-9-(3,4-dihydroxyphenethyl)-6,7,8,9-tetrahydropyrimido[2,1-f]purine-2,4(1H,3H)-dione] |
| > 1000 | 3 | 8.87 ± 0.94 | > 1000 | -2 | 218 to 220 | Cn1c(=O)c2c(nc(NCCc3ccc(O)c(O)c3)n2CCOc2ccccc2)n(C)c1=O [Compound 11l, 8-((3,4-Dihydroxyphenethyl)amino)-1,3-dimethyl-7-(2-phenoxyethyl)-3,7-dihydro-1H-purine-2,6-dione] |
| > 1000 | 9 | 13.3 ± 2.2 | > 1000 | 25 | – | CCCn1c(=O)c2c(nc(NCCc3ccc(O)c(O)c3)n2CCC)n(CCC)c1=O [Compound 12, 8-((3,4-Dihydroxyphenethyl)amino)-1,3,7-tripropyl-3,7-dihydro-1H-purine-2,6-dione] |
| > 1000 | 6 | 9.95 ± 1.95 | > 1000 | -1 | – | Cn1c(=O)c2c(nc(NCCc3ccc(O)c(O)c3)n2CCc2ccccc2)n(C)c1=O [Compound 11k, 8-((3,4-Dihydroxyphenethyl)amino)-1,3-dimethyl-7-phenethyl-3,7-dihydro-1H-purine-2,6-dione] |
| > 1000 | 3 | 9.1 ± 1.65 | > 1000 | 7 | – | Cn1c(=O)c2c(nc(NCCc3ccc(O)c(O)c3)n2Cc2ccccc2)n(C)c1=O [Compound 11j, 7-Benzyl-8-((3,4-dihydroxyphenethyl)amino)-1,3-dimethyl-3,7-dihydro-1H-purine-2,6-dione] |
| > 1000 | 15 | 6.68 ± 0.87 | > 1000 | -6 | 213 to 215 | Cn1c(=O)c2c(nc3n2CCCN3CCc2ccc(O)c(O)c2)n(C)c1=O [Compound 20a, 9-(3,4-Dihydroxyphenethyl)-1,3-dimethyl-6,7,8,9-tetrahydropyrimido[2,1-f]purine-2,4(1H,3H)-dione] |
